Assay results as given in publication PMC2708596 (Toxicological Sciences, 2009).
Like-named read-outs stand apart in the source and are kept apart here. Each block holds one molecule with its values, some of them ahead of it.

How the values were obtained:
[1] = Male rat, Liver; estragole metabolites; ref Punt et al. (2008); cited from earlier work
[2] = Male rat, Lung, ref Punt et al. (2008), cited from earlier work
[3] = PBBK model for estragole in human; details: 0.001 mg/kg bw, after 8 h, compared with Sangster et al., 1987
[4] = Phase I metabolism of estragole by human liver microsomes; format: in vitro ADME
[5] = Male rat, Kidney, ref Punt et al. (2008), cited from earlier work
[6] = rats, 0.05 mg/kg bw; ref Anthony et al., 1987; cited from earlier work
[7] = humans, ref Sangster et al., 1987, cited from earlier work

- predicted formation compared with the reported in vivo level [3]: fourfold lower
Structure (SMILES): C=CCc1ccc(O)cc1 [4-allylphenol]
- Catalytic efficiency [1]: 3 ml h^−1 (g liver)^−1
- Scaled Vmax (app) [1]: 1.6 μmol h^−1 (g tissue)^−1
- Scaled Vmax (app) ([2]; microsomal protein yield 20 mg/g): 0.8 μmol h^−1 (g tissue)^−1
- Catalytic efficiency [2]: 1600 ml h^−1 (g liver)^−1
- Km ([2]; read-out: Km (app)): 0.5 µM
- Scaled Vmax (app) ([4]; Human, Liver, estragole metabolites, microsomal protein yield 32 mg/g): 0.7 μmol h^−1 (g tissue)^−1
- Catalytic efficiency ([4]; Human, Liver, estragole metabolites, scaled Vmax (app)/Km(app)): 2 ml h^−1 (g liver)^−1
- In vitro catalytic efficiency ([4]; Vmax (app)/Km(app) × 1000 μl/ml): 1.3 μl min^−1 (mg microsomal protein)^−1
- Scaled Vmax (app) ([5]; microsomal protein yield 7 mg/g): 0.2 μmol h^−1 (g tissue)^−1
- Catalytic efficiency [5]: 400 ml h^−1 (g liver)^−1
- Km ([5]; read-out: Km (app)): 0.5 µM

Structure (SMILES): C=CCc1ccc(OC)cc1 [estragole, 4-allylanisol]
- oral dose accounted for by O-demethylation [6]: 53 % of the oral dose
- dose excreted as 14CO2 (level of O-demethylation) ([7]; 0.001 mg/kg bw, after 8 h): ~10 % of the dose
- radioactivity excreted in the urine ([7]; 0.001 mg/kg bw, after 8 h): 31–37 % of the dose
- radioactivity excreted in the urine ([7]; 0.001 mg/kg bw, after 24 h): 47–53 % of the dose
- radioactivity excreted in the urine ([7]; 0.001 mg/kg bw, after 48 h): 54–62 % of the dose
- radioactivity not recovered ([7]; within 48 h): ~30%
